According to PMC4047925 (Journal of Agricultural and Food Chemistry, 2014):

Assay: hydroxyl radical-scavenging assay
Type: biochemical
Conditions: ED50 <20 μM considered active

Compound | hydroxyl radical scavenging ED50 (concentration scavenging hydroxyl radical by 50%) [µM]
CC(=O)c1ccc(O)cn1 [Compound 6, 5-hydroxy-2-pyridyl methyl ketone] | >20
O=c1c(O)c(-c2ccc(O)c(O)c2)oc2cc(O)cc(O)c12 [quercetin, reference compound] | 1.3
COC(=O)C(C)n1c(C=O)ccc1CO (stereo not drawn) [Compound 1, methyl 2-[2-formyl-5-(hydroxymethyl)-1H-pyrrol-1-yl]propanoate] | 16.7
